# pIC50: −log10 of the molar value.
# What was measured:
# Mus musculus [1] = assay: Toxicity in KM mouse allografted with mouse H22 cells assessed as body weight at 7.5 mg/kg, ip administered on day 1 to 7 measured on day 8 (reference value: 30 +/- 3.24 g); assay type: organism-based; design: dose 7.5 mg/kg, route intraperitoneal; conditions: in vivo
# Mus musculus [2] = assay: Toxicity in KM mouse allografted with mouse H22 cells assessed as body weight at 10 mg/kg, ip administered on day 1, 3, 5, 7 measured on day 8 (reference value: 30 +/- 3.24 g); assay type: organism-based; design: dose 10 mg/kg, route intraperitoneal; conditions: in vivo
# Mus musculus [3] = assay: Toxicity in KM mouse allografted with mouse H22 cells assessed as body weight at 15 mg/kg, ip administered on day 1 and 4 measured on day 8 (reference value: 30 +/- 3.24 g); assay type: organism-based; design: dose 15 mg/kg, route intraperitoneal; conditions: in vivo
# Mus musculus [4] = assay: Toxicity in KM mouse allografted with mouse H22 cells assessed as body weight at 20 mg/kg, ip administered on day 1 measured on day 8 (reference value: 30 +/- 3.24 g); assay type: organism-based; design: dose 20 mg/kg, route intraperitoneal; conditions: in vivo
# H22 [5] = assay: Antitumor activity against mouse H22 cells allografted in KM mouse assessed as tumor growth inhibition at 7.5 mg/kg, ip administered on day 1 to 7 measured on day 8 relative to control; assay type: functional; conditions: route intraperitoneal, read-out: TGI
# H22 [6] = assay: Antitumor activity against mouse H22 cells allografted in KM mouse assessed as tumor growth inhibition at 10 mg/kg, ip administered on day 1, 3, 5, 7 measured on day 8 relative to control; assay type: functional; conditions: route intraperitoneal, read-out: TGI
# H22 [7] = assay: Antitumor activity against mouse H22 cells allografted in KM mouse assessed as tumor growth inhibition at 15 mg/kg, ip administered on day 1 and 4 measured on day 8 relative to control; assay type: functional; conditions: route intraperitoneal, read-out: TGI
# H22 [8] = assay: Antitumor activity against mouse H22 cells allografted in KM mouse assessed as tumor growth inhibition at 20 mg/kg, ip administered on day 1 measured on day 8 relative to control; assay type: functional; conditions: route intraperitoneal, read-out: TGI
# HT-29 [9] = assay: Cell cycle arrest in human HT-29 cells assessed as accumulation at G2/M phase after 24 hrs by propidium iodide staining-based flow cytometric analysis; assay type: functional
# HT-29 [10] = assay: Cell cycle arrest in human HT-29 cells assessed as accumulation at G2/M phase at 100 nM after 24 hrs by propidium iodide staining-based flow cytometric analysis (reference value: 7.37%); assay type: functional
# HT-29 [11] = assay: Cell cycle arrest in human HT-29 cells assessed as accumulation at G2/M phase at 50 nM after 24 hrs by propidium iodide staining-based flow cytometric analysis (reference value: 7.37%); assay type: functional
# HT-29 [12] = assay: Cell cycle arrest in human HT-29 cells assessed as accumulation at G2/M phase at 12.5 nM after 24 hrs by propidium iodide staining-based flow cytometric analysis (reference value: 7.37%); assay type: functional
# HT-29 [13] = assay: Cell cycle arrest in human HT-29 cells assessed as accumulation at S phase at 100 nM after 24 hrs by propidium iodide staining-based flow cytometric analysis (reference value: 24.39%); assay type: functional
# HT-29 [14] = assay: Cell cycle arrest in human HT-29 cells assessed as accumulation at S phase at 50 nM after 24 hrs by propidium iodide staining-based flow cytometric analysis (reference value: 24.39%); assay type: functional
# HT-29 [15] = assay: Cell cycle arrest in human HT-29 cells assessed as accumulation at S phase at 12.5 nM after 24 hrs by propidium iodide staining-based flow cytometric analysis (reference value: 24.39%); assay type: functional
# HT-29 [16] = assay: Cell cycle arrest in human HT-29 cells assessed as accumulation at G0/G1 phase at 100 nM after 24 hrs by propidium iodide staining-based flow cytometric analysis (reference value: 68.24%); assay type: functional
# HT-29 [17] = assay: Cell cycle arrest in human HT-29 cells assessed as accumulation at G0/G1 phase at 50 nM after 24 hrs by propidium iodide staining-based flow cytometric analysis (reference value: 68.24%); assay type: functional
# HT-29 [18] = assay: Cell cycle arrest in human HT-29 cells assessed as accumulation at G0/G1 phase at 12.5 nM after 24 hrs by propidium iodide staining-based flow cytometric analysis (reference value: 68.24%); assay type: functional
# Tubulin = assay: Inhibition of tubulin (unknown origin) polymerization measured for 60 mins; assay type: protein-complex assay, Homo sapiens
# MX1 [19] = assay: Cytotoxicity against taxol-resistant human MX1 cells assessed as growth inhibition after 72 hrs by MTT assay; assay type: functional, cell-based; conditions: MX1, 72 h
# MX1 [20] = assay: Cytotoxicity against human MX1 cells assessed as growth inhibition after 72 hrs by MTT assay; assay type: functional, cell-based; conditions: MX1, 72 h
# KB [21] = assay: Cytotoxicity against vincristine-resistant human KB cells assessed as growth inhibition after 72 hrs by MTT assay; assay type: functional, cell-based
# KB [22] = assay: Cytotoxicity against human KB cells assessed as growth inhibition after 72 hrs by MTT assay; assay type: functional, cell-based
# HT-29 [23] = assay: Potency index, ratio of combretastatin A-4 IC50 to compound IC50 for human HT-29 cells; assay type: functional
# BXPC-3 [24] = assay: Potency index, ratio of vincristine IC50 to compound IC50 for human BxPC3 cells; assay type: functional
# MCF7 [25] = assay: Potency index, ratio of combretastatin A-4 IC50 to compound IC50 for human MCF7 cells; assay type: functional
# BXPC-3 [26] = assay: Cytotoxicity against human BxPC3 cells assessed as growth inhibition after 72 hrs by MTT assay; assay type: functional, cell-based; conditions: BXPC-3, 72 h
# HT-29 [27] = assay: Cytotoxicity against human HT-29 cells assessed as growth inhibition after 72 hrs by MTT assay; assay type: functional, cell-based; conditions: HT-29, 72 h
# MCF7 [28] = assay: Cytotoxicity against human MCF7 cells assessed as growth inhibition after 72 hrs by MTT assay; assay type: functional, cell-based; conditions: MCF7, 72 h
smiles,measurement,setting,value
COc1cc(-c2ncoc2-c2ccc(OC)c3[nH]cnc23)cc(OC)c1OC,Activity,Mus musculus [1],25.5 g
same,Activity,Mus musculus [2],28.4 g
same,Activity,Mus musculus [3],24.4 g
same,Activity,Mus musculus [4],30.4 g
same,inhibition in vivo at 7.5 mg/kg,H22 [5],55%
same,inhibition in vivo at 10 mg/kg,H22 [6],52%
same,inhibition in vivo at 15 mg/kg,H22 [7],66%
same,inhibition in vivo at 20 mg/kg,H22 [8],42%
same,Activity,HT-29 [9],Dose-dependent effect
same,Activity,HT-29 [10],44.25%
same,Activity,HT-29 [11],35.63%
same,Activity,HT-29 [12],14.75%
same,Activity,HT-29 [13],30.04%
same,Activity,HT-29 [14],34.83%
same,Activity,HT-29 [15],24.97%
same,Activity,HT-29 [16],25.71%
same,Activity,HT-29 [17],29.54%
same,Activity,HT-29 [18],50.29%
same,pIC50,Tubulin,6.41
same,pIC50,MX1 [19],6.60
same,pIC50,MX1 [20],6.40
same,pIC50,KB [21],7.19
same,pIC50,KB [22],7.80
same,Ratio IC50,HT-29 [23],32
same,Ratio IC50,BXPC-3 [24],16
same,Ratio IC50,MCF7 [25],8
same,pIC50,BXPC-3 [26],7.51
same,pIC50,HT-29 [27],8.08
same,pIC50,MCF7 [28],7.60

# Reference: ChEMBL document CHEMBL2424644, “Synthesis and antiproliferative evaluation of novel benzoimidazole-contained oxazole-bridged analogs of combretastatin A-4” (Eur J Med Chem, 2013)
